In patent US20130059324A1, “SYSTEMS AND METHODS FOR MECHANICALLY STRAINED CELL CULTURE” (THE UNIVERSITY OF KANSAS, priority 2010, published 2013):

Legend:
[1] = test system: A549 cells; experiment: Drug exposure with or without simulated forces, 6-well Bioflex plates, live cell count and exponential growth model; type: cell-based, human
Protocol: Treatments 1, 2 and 3 served as unstretched controls for Treatments 4, 5 and 6, respectively. For each cell line and drug, all treatments were independently repeated at least 3 times on different days, with 3 replicates per Treatments 1 and 4 (n=9) and 5 replicates per all other treatments (n=15).
Cells were passaged in 75 cm2 culture flasks at 37° C. in 5% CO2, and trypsinized using TryplE™ Express (Gibco) containing phenol red.
Cells were plated in 6-well Bioflex® plates (Flexcell® International Corporation, Hillsborough, N.C.). Each well of the plate has a flexible elastic membrane coated with a thin layer of type I collagen. Type I collagen was chosen since it more accurately represents the physiology of lung tumor cells in vivo. […] In Treatments 1, 2 and 3, NCI-H358 and A549 cells were plated at a density of 100,000 and 20,000 cells/well in 2 ml of corresponding media, respectively. For treatments involving simulated forces (Treatments 4-6), NCI-H358 and A549 cells were plated at a density of 170,000 and 35,000 cells/well, respectively.
After allowing the cells to adhere to the membrane for 24 hours, the plates assigned for simulated forces were stretched using the FX-4000 Tension plus unit (Flexcell® International Corporation, Hillsborough, N.C.). The Flexcell unit was configured to deliver an alternating positive and negative pressure beneath the cell culture surfaces. Negative pressure pulls the culture surface down over a stationary Delrin post on the baseplate, delivering a uniform biaxial strain to the cells, and subsequent application of positive pressure releases this distension (FIGS. 9A and 9B.) In this manner, the alternating positive and negative pressure simulates forces experienced during respiration. Culture plates experiencing forces were fitted with rubber gaskets and placed on circular loading stations in the baseplate.
After 72 hours of initial seeding, one of the five drugs was added to Treatments 3 and 6 of each cell line. […] To insure comparability, an aliquot of 1 ml of media without the drug was added to each well in Treatments 2 and 5. After adding the drug or 1 ml of media, the plates from Treatments 5 and 6 were placed back on the baseplate and subjected to the same force profile as before for the remaining 72 hours. Plates from Treatments 2 and 3 (without forces) were placed in the same incubator for the remaining 72 hours.
Cells were trypsinized and counted at the end of day 3 in Treatments 1 and 4, and at the end of day 6 in the other treatments, using a Beckman Coulter Vi-Cell Analyzer (Beckman Coulter, Fullerton, Calif.). To examine changes in morphology, microphotographs of A549 and NCI-H358 cells were taken at the end of Treatments 1, 2, 4 and 5 using an Olympus inverted microscope and a 10× objective.
The standard exponential cell growth model (28) was used to describe the changes in live cell counts after each treatment. According to this model, the cell count (e.g., N) at a particular time (e.g., t), is given by the equation:
N* is the initial cell count and λ is the cell growth rate. For each cell line, the following cell growth rates were estimated: λ=growth rate in the absence of forces and drugs, λd=growth rate in the presence of a particular drug but no forces, λXf=growth rate in the presence of forces but no drugs; and λfd=growth rate in the presence of forces and a particular drug. The growth rates λd and λfd were estimated for each tested drug. Using these growth rates and the exponential growth model, the final cell counts were mathematically modeled for each treatment under various conditions (FIG. 8). For each cell line, a linear regression model that combined the information from the 5 investigated drugs was built using Stata Statistical Software (StataCorp LP, Texas) after log-transforming the six equations listed in FIG. 8. The regression coefficients in the model were the growth rates.

[2] = test system: H358 cells grown as 3D tissues; experiment: 3D culture antiproliferative MTS assay in collagen with and without mechanical forces; type: cell-based; settings: Homo sapiens, NCI-H358, 72 h, H358 3D in collagen, 72 hours exposure
Protocol: Effects of mechanical forces on engineered 3-dimensional tumor tissues were also studied, An experiment was conducted with paclitaxel, which was tested in the presence and absence of mechanical forces in H358 cells (bronchioalveolar carcinoma) grown as 3D tissues in type 1 rat tail collagen scaffold. The cells were seeded at a density of 4×10^6 cells per well in 6-well Bioflex collagen I plates and cultured in PRMI 1640 medium The forces that were tested were configured to mimic normal respiration. After 24 hours of seeding, cells were stretched from 0% to a maximum of 20% elongation for 2 seconds followed by 2 seconds of rest continuously for 4 days. Control group included cells that were plated in collagen at the same densities and incubated for 5 days without mechanical forces. […] As a note, a computing system similar to FIG. 6 can be used to control an experiment system in order to provide predetermined cycles of mechanical strain and relaxation.
Following 24 hours of stetching, paclitaxel was added to H358 cells in ten 1:3 dilutions with starting concentrations 100 μM. […] Dose response curves were plotted and corresponding IC50 values (concentration of the drug at which 50% of the cells are inhibited) were calculated for stretched and un-stretched conditions using Graphpad Prism software.

[3] = test system: A549 cells; experiment: Prototype 96-well plate, viable cell count (Vi-Cell) with and without mechanical forces; settings: drug at IC90, 24 hours
Protocol: After allowing the cells to adhere to the flexible membrane of the 96 well plate for 24 hours, the loading pins and the system described in FIG. 7 to implement mechanical strain were used to deliver 20% maximum strain for 2 seconds to the plate assigned for mechanical forces (+M Group), followed by 2 seconds of rest (15 cycles per minute with an average strain of 10% per cycle) in keeping with a normal human respiration.
In a parallel experiments, the cells were treated with anti-tumor drug after 72 hours of initial seeding (after 48 hours of mechanical stretching). The drug was dissolved in dimethyl sulfoxide (DMSO) at stock concentration and added to the respective media. […] The IC90 concentrations of the drugs were then added to prototype plate.
The +M Group was subjected to continuous mechanical stretching while the −M Group plate was placed in the same incubator for additional 24 hours.
In order to quantify viability, 6 wells per treatment group for ViCell counter and 6 wells per condition for MTS were assigned to determine the cell viability. Using Vi-Cell counter, assigned wells were filled with extra 210 μl of media to keep the volume constant in all the wells. Media from the assigned wells were transferred into a 24-well plate, and the well location was recorded. About 50 μl of trypLE was added to each well and allowed to trypsinize for a maximum of ten minutes. A small amount of media from the 24-well plate was transferred back into corresponding wells of the prototype plate to collect detached cells.
Media and cells were transferred back into the corresponding well of the 24-well plate. All wells were brought to a final volume of 1.25 mL with PBS and mixed well. About 1 ml of this cell suspension was transferred to ViCell counter to determine the number of viable cells.

- IC50 ([2]; absence of mechanical stress): 22.6 µM
- IC50 ([2]; cells experiencing mechanical stress (0-20% elongation)): 0.2 µM
SMILES: CC(=O)O[C@H]1C(=O)[C@@]2(C)[C@H]([C@H](OC(=O)c3ccccc3)[C@]3(O)C[C@H](OC(=O)[C@H](O)[C@@H](NC(=O)c4ccccc4)c4ccccc4)C(C)=C1C3(C)C)[C@]1(OC(C)=O)CO[C@@H]1C[C@@H]2O [Paclitaxel]
- Growth Rates, With forces ([1]; drug at IC90 for 3 days, 20% maximum strain, 15 cycles/minute): −0.038 per day
- Growth Rates, Without forces ([1]; drug at IC90 for 3 days, no forces, negative = reduction in viable cell count): 0.133 per day
- Effectiveness of The Drug, Without forces (E) ([1]; percentage reduction in live cell counts, 3-day drug exposure at IC90, no forces): 76.9%
- Effectiveness of The Drug, With forces (Ef) ([1]; percentage reduction in live cell counts, 3-day drug exposure at IC90, simulated forces): 57.5%
- Viable Cell Count after 24 hours of drug exposure, With forces (Ef) ([3]; mechanical forces): 11875.0
- Viable Cell Count after 24 hours of drug exposure, Without forces (E) ([3]; no forces): 33125.0
